Results: patent publication US9409952B2, “Peptide-compound cyclization method” (Chugai Seiyaku Kabushiki Kaisha, priority 2011, dated 2016)
Positions of bridges follow the written chain, without caps; N, C: chain ends. Non-standard residues stand in square brackets, D forms with d. Residues, ends and D or L forms follow the SMILES beside them. *: point of attachment. NMeF = CN[C@@H](Cc1ccccc1)C(=O)O; NMeL = CN[C@@H](CC(C)C)C(=O)O; NMeV = CN[C@H](C(=O)O)C(C)C; NMeA = CN[C@@H](C)C(=O)O; Piperidide = C1CCN(*)CC1; Sar = CNCC(=O)O

Assay: Metabolic stability in human hepatic microsome
Assay type: in vitro ADME
Conditions: human, microsomes, pH 7.4, CL NADPH(+)
CC[C@H](C)[C@H](NC(=O)[C@H](CC(C)C)N(C)C(=O)[C@@H](NC(=O)[C@@H]1CC(=O)N[C@@H](C)C(=O)N[C@@H](CC(C)C)C(=O)N[C@@H]([C@@H](C)O)C(=O)N(C)[C@@H](Cc2ccccc2)C(=O)N[C@@H](Cc2ccccc2)C(=O)N(C)[C@@H](C)C(=O)N1)C(C)C)C(=O)N1CCCCC1 [DP-46] (ALT[NMeF]F[NMeA]DV[NMeL]I-Piperidide; lactam N-7) gave a microsomal CLint at 1 uM of 249 µL/min/mg.

Same assay, conditions: microsomes, pH 7.4; human hepatic microsome, NADPH(+); read-out: CL NADPH(+)
CC(C)C[C@@H]1NC(=O)[C@H](C)NC(=O)C[C@@H](C(=O)N2CCCCC2)NC(=O)[C@H](CC(C)C)N(C)C(=O)[C@H](C)NC(=O)[C@H](CC(C)C)NC(=O)[C@H](C(C)C)NC(=O)CNC(=O)[C@H](Cc2ccccc2)NC(=O)[C@H](C)N(C)C(=O)[C@H](CC(C)C)NC(=O)[C@H]([C@@H](C)O)NC(=O)[C@H](Cc2ccccc2)NC1=O [DP-82] (ALFTL[NMeA]FGVLA[NMeL]D-Piperidide; lactam N-13) showed a microsomal CLint at 1 uM of 16 µL/min/mg. With CC[C@H](C)[C@@H]1NC(=O)[C@H](Cc2ccccc2)N(C)C(=O)[C@H](Cc2ccccc2)NC(=O)[C@H](CC(C)C)N(C)C(=O)[C@H](C(C)C)NC(=O)[C@H](CC(C)C)NC(=O)[C@H](C)N(C)C(=O)CNC(=O)[C@H](C)NC(=O)C[C@@H](C(=O)N2CCCCC2)NC(=O)[C@H]([C@@H](C)O)NC(=O)[C@H](CC(C)C)NC(=O)[C@H](C)N(C)C1=O [DP-83] (AG[NMeA]LV[NMeL]F[NMeF]I[NMeA]LTD-Piperidide; lactam N-13) the microsomal CLint at 1 uM was 39 µL/min/mg. CC[C@H](C)[C@@H]1NC(=O)[C@H](C)N(C)C(=O)[C@H](Cc2ccccc2)NC(=O)[C@H](Cc2ccccc2)NC(=O)[C@H](CC(C)C)NC(=O)[C@H](C(C)C)N(C)C(=O)[C@H](CC(C)C)NC(=O)[C@H](C)NC(=O)[C@H](C)NC(=O)C[C@@H](C(=O)N2CCCCC2)NC(=O)CNC(=O)[C@H]([C@@H](C)O)NC1=O [DP-84] (AAL[NMeV]LFF[NMeA]ITGD-Piperidide; lactam N-12) gave a microsomal CLint at 1 uM of 21 µL/min/mg. For CC[C@H](C)[C@@H]1NC(=O)[C@H](Cc2ccccc2)N(C)C(=O)[C@H](Cc2ccccc2)NC(=O)[C@H](C(C)C)N(C)C(=O)[C@H](CC(C)C)N(C)C(=O)[C@H](CC(C)C)NC(=O)[C@H](C)NC(=O)C[C@@H](C(=O)N2CCCCC2)NC(=O)[C@H]([C@@H](C)O)NC(=O)CNC(=O)[C@H](C)N(C)C1=O [DP-85] (AL[NMeL][NMeV]F[NMeF]I[NMeA]GTD-Piperidide; lactam N-11), the microsomal CLint at 1 uM was 58 µL/min/mg. In the case of CC[C@H](C)[C@@H]1NC(=O)[C@H](Cc2ccccc2)N(C)C(=O)[C@H](Cc2ccccc2)NC(=O)[C@H](CC(C)C)N(C)C(=O)[C@H](CC(C)C)NC(=O)[C@H](C)NC(=O)C[C@@H](C(=O)N2CCCCC2)NC(=O)[C@H]([C@@H](C)O)NC(=O)[C@H](C)N(C)C1=O [DP-86] (AL[NMeL]F[NMeF]I[NMeA]TD-Piperidide; lactam N-9), the microsomal CLint at 1 uM is reported as 237 µL/min/mg. CC[C@H](C)[C@@H]1NC(=O)[C@H](C)NC(=O)[C@H](CC(C)C)N(C)C(=O)[C@H](CC(C)C)NC(=O)[C@H](Cc2ccccc2)NC(=O)[C@H](C(C)C)NC(=O)[C@H](C)N(C)C(=O)[C@H](CC(C)C)NC(=O)[C@H](Cc2ccccc2)N(C)C(=O)[C@H]([C@@H](C)O)NC(=O)CNC(=O)[C@H](C)NC(=O)C[C@@H](C(=O)N2CCCCC2)NC1=O [DP-87] (AGT[NMeF]L[NMeA]VFL[NMeL]AID-Piperidide; lactam N-13) showed a microsomal CLint at 1 uM of 120 µL/min/mg. Work on CC(C)C[C@H]1C(=O)N(C)[C@@H](Cc2ccccc2)C(=O)N[C@@H](C)C(=O)N2CCC[C@H]2C(=O)N(C)[C@@H](CC(C)C)C(=O)N(C)[C@@H](Cc2ccccc2)C(=O)N(C)[C@@H](C(C)C)C(=O)N[C@H](C(=O)N2CCCCC2)CC(=O)N[C@H](C)C(=O)N[C@@H]([C@@H](C)O)C(=O)N(C)CC(=O)N1C [DP-141] ([dA]T[Sar][NMeL][NMeF]AP[NMeL][NMeF][NMeV]D-Piperidide; lactam N-11) yielded a microsomal CLint at 1 uM of 77 µL/min/mg.
